Experiment: Human HepG2 cell viability assay in 384 well format
Format: toxicity, cell-based
Set-up: dose 125 nL, time 70.5 hour; cytotoxicity at 70.5 h: concentration not given beside the values
Details: HepG2 cells, read-out: Inhibition

| Compound | cytotoxicity at 70.5 h |
| --- | --- |
| O=C(Cn1nc(-c2ccc(F)cc2)oc1=O)NCc1ccncc1 | -12.1% |
| Cc1ncsc1C(=O)NCc1ccnc(OCC(F)(F)F)c1 | -11.3% |
| Cc1cc(C(=O)NCc2ccnc(OCC(F)(F)F)c2)on1 | 16.2% |
| Cc1cc(C)n(-c2ccc(CNCc3ccc(F)c(F)c3)cn2)n1 | 2.51% |
| Cc1cc(C)n(-c2ccc(CNCc3cccc(C#N)c3)cn2)n1 | -12.6% |
| Cc1ccc(C(=O)N2CCC(Oc3cccc(C)c3C)CC2)c(=O)[nH]1 | -4.54% |
| Cc1ccc(C(=O)N2CCC(Oc3c(C)cccc3C)CC2)c(=O)[nH]1 | 0.338% |
| O=C(Nc1ccccn1)N(CCO)Cc1ccccc1Br | -2.33% |
| Cn1cc(-c2nc(CN3CCN(c4nccs4)CC3)cs2)cn1 | -5.83% |
| Cc1cc(C)n(CC2CN(c3nnc(C)c(C)c3C#N)CCO2)n1 (stereo not drawn) | -3.24% |
| Cc1nnc(N2CCOC(CN(C)C)C2)c(C#N)c1C (stereo not drawn) | -6.93% |
| NC(=O)c1cnn2c1NCC(CNCCCc1ccccc1)C2 (stereo not drawn) | -6.83% |
| Cc1cc(NC(=O)N(CCO)Cc2ccsc2)no1 | -4.98% |
| c1cnn(CC2CCCCN2Cc2noc(C3CC3)n2)c1 (stereo not drawn) | -6.47% |
| NC(=O)c1cnn2c1NCC(CNCCc1cccs1)C2 (stereo not drawn) | -5.82% |
| CCc1ccc(C(=O)NC2CCc3nc(C)cn3C2)o1 (stereo not drawn) | -4.82% |
| Cc1nnc(N2CCOC(C)C2)c(C#N)c1C (stereo not drawn) | -8.59% |
| CN1CCCC1CNC(=O)CCCOc1cccc(F)c1 (stereo not drawn) | 5.1% |
| Cc1cc(C)c2c(c1)C(NCc1c(C)nn(C)c1N(C)C)CCO2 (stereo not drawn) | 3.6% |
| COc1c(CNC(c2cccc(F)c2)c2nccn2C)c(C)nn1C (stereo not drawn) | 19% |
| Cc1nc2ccccc2c(=O)n1CCC(=O)N1CCCC1 | -6.75% |
| Cc1nc2ccccc2c(=O)n1CCC(=O)N1CCCCCC1 | 1.78% |
| Cc1ccc(C(=O)Nc2cn[nH]c2)cc1F | 13.5% |
| CC(C)c1noc(CCC(=O)NC(C)c2ccccn2)n1 (stereo not drawn) | -1.62% |

| Compound | cytotoxicity at 70.5 h |
| --- | --- |
| Cn1cc(C(=O)N2CCN(Cc3ccsc3)CC2)cn1 | 14.2% |
| COC1CCN(C(=O)Cc2csc(-c3ccc(F)cc3)n2)CC1 | 0.103% |
| Cc1ccc(C(=O)N(C)Cc2ccc3c(c2)OCCO3)c(=O)[nH]1 | 18.5% |
| Cc1nn(C)c(N(C)C)c1CNC1CCOc2ccccc21 (stereo not drawn) | 1.15% |
| CN1CCCC1CNC(=O)CCCOc1ccc(I)cc1 (stereo not drawn) | -0.485% |
| CN1CCCC1CNC(=O)CCOc1ccc(Cl)cc1 (stereo not drawn) | -2.08% |
| COc1c(CNC(c2ccccc2)c2ccc(F)cc2)c(C)nn1C (stereo not drawn) | 24% |
| CNc1nc(CNC(=O)Nc2cc(Cl)ccc2F)cs1 | -2.3% |
| CNc1nc(CNC(=O)Nc2cccc(C)c2Cl)cs1 | -1.43% |
| COC(=O)NCCC(=O)NC(C)Cc1cccc(Br)c1 (stereo not drawn) | 2.65% |
| CC(C)NC(=O)CN1CCC(c2cccc(F)c2)C1 (stereo not drawn) | 22.8% |
| CCOCC(O)CN1CCN(C(=O)Cc2ccc3c(c2)CCC3)CC1 (stereo not drawn) | 53.8% |
| O=C(CSc1ccc(Br)cc1)NS(=O)(=O)c1ccc2c(c1)OCCO2 | 4.15% |
| COCC(c1cccc(C(F)(F)F)c1)N(C)C(=O)c1ccccn1 (stereo not drawn) | -4.66% |
| CCC(O)CN1CCN(C(=O)Cc2ccc(C)nc2)CC1 (stereo not drawn) | -0.788% |
| CC(C(=O)N1CCCN(Cc2ccc(C#N)cc2)CC1)n1cccn1 (stereo not drawn) | 1.6% |
| Cc1ccc(CC(=O)N2CCC(Nc3cccnn3)CC2)s1 | 0.908% |
| COCC(c1cccc(C(F)(F)F)c1)N(C)C(=O)c1cccnc1 (stereo not drawn) | -1.51% |
| CC(C(=O)N1CCCN(Cc2cnn(C)c2)CC1)n1ccnc1 (stereo not drawn) | 23.2% |
| Cc1ccc(C(=O)NC(CN2CCCC2=O)c2ccccc2)cn1 (stereo not drawn) | 2.77% |
| CC(C)c1ccc(OCCC(=O)N2CCC(C(=O)N(C)C)CC2)cc1 | -3.99% |
| Cc1nccc(C(=O)NC(CN2CCCC2=O)c2ccccc2)n1 (stereo not drawn) | -3.75% |
| COc1c(CNCc2ccnc(N(C)C)c2)c(C(C)C)nn1C | 0.688% |
| CC(C)c1nn(C)c(N(C)C)c1CNCc1ccc(N(C)C)nc1 | 3.68% |

| Compound | cytotoxicity at 70.5 h |
| --- | --- |
| CC(C(=O)N1CCN(Cc2ccc3c(c2)OCO3)CC1)n1ccnc1 (stereo not drawn) | 0.67% |
| CCNC(=O)NC(=O)CN1CCC(c2cccc(F)c2)C1 (stereo not drawn) | -2.05% |
| CCn1c(CN2CCN(C(=O)C3CCC3)CC2)nc2c(F)cccc21 | 1.75% |
| CCNc1cc2c(nn1)CCN(C(=O)c1nccnc1N)C2 | -2.38% |
| CCNc1cc2c(nn1)CCN(C(=O)c1ccc3c(c1)OCO3)C2 | -4.42% |
| Cc1ccc(NC2CCN(C(=O)Cc3c(C)nn(C)c3C)CC2)nn1 | -1.21% |
| COCC(c1cccc(C(F)(F)F)c1)N(C)C(=O)c1ccco1 (stereo not drawn) | -1.02% |
| CC(C)c1cc(NC(=O)CN2CCn3c(nnc3C3CC3)C2)on1 | 19.6% |
| CC(C)(C)c1cc(NC(=O)CN2CCn3c(nnc3C3CC3)C2)on1 | 3.06% |
| O=C(CCc1ccccc1Cl)NS(=O)(=O)c1ccc2c(c1)OCCO2 | -2.93% |
| OC(COCc1ccc2c(c1)OCO2)CN1CC(n2cccn2)C1 (stereo not drawn) | 3.04% |
| Cc1cccc(-c2nc(C)nn2CC(=O)NC2CCCC2)c1 | 3.32% |
| Cc1cc(C)n(CC2CN(CC(=O)NC3CCCC3)CCO2)n1 (stereo not drawn) | 18.5% |
| CCc1nnc2n1CCN(C(=O)c1cc3ccc(F)cc3nc1C)C2 | -3.67% |
| Cc1cc(CN2CCN(c3ccc4nncn4n3)C(C)C2)no1 (stereo not drawn) | 5.04% |
| COc1ccc(CNC2CCCN(Cc3noc(C)n3)C2)cc1F (stereo not drawn) | 23.4% |
| COc1ccc(-n2ccc(C(=O)N3CCN(C)CC3C)n2)cc1 (stereo not drawn) | -5.83% |
| Cc1cccc(-c2nc(C)nn2CC(=O)N(C)C2CC2)c1 | -5.01% |
| O=C(Cc1cccc(F)c1)NCCNCc1ccc2c(c1)CCO2 | 6.87% |
| Cc1ccc(-c2nc(CNC3CCc4ncnn4C3)co2)c(C)c1 (stereo not drawn) | 1.75% |
| O=C(Cc1cccc(F)c1)NCCNCc1ccco1 | 19.4% |
| COc1ccc(CCN2CCC(N3CCN(C)C3=O)CC2)cc1 | -8.36% |
| Cc1nc(C)n(C2CCCN(C(=O)Cc3n[nH]c4ccccc34)C2)n1 (stereo not drawn) | 1.52% |
| Cn1ccc(CN2CCC(OCCc3ccccc3)CC2)cc1=O | -5.72% |

| Compound | cytotoxicity at 70.5 h |
| --- | --- |
| CCc1nc(C2CCCN2CC(=O)Nc2sc(C)c(C)c2C)no1 (stereo not drawn) | -5.03% |
| Cc1nc(C)n(C2CCCN(C(=O)COCc3ccccc3)C2)n1 (stereo not drawn) | -0.931% |
| O=C(Cc1cccc(F)c1)NCCNCc1cccc(O)c1 | 0.873% |
| Cn1ccnc1COc1ccc(CN2CCN(CCO)CC2)cc1 | 15% |
| CC(NC(=O)Cn1cccn1)c1ccc2c(c1)OCCCO2 (stereo not drawn) | 52.1% |
| Cn1ccnc1COc1ccc(CO)cc1 | -6.37% |
| O=C(NCC1CCOC1)c1cc(-c2cccc(Cl)c2)on1 (stereo not drawn) | -5.03% |
| O=C(NCC1CCOC1)c1csc(-c2ccco2)n1 (stereo not drawn) | 21.2% |
| Cc1cc(C(=O)N2CCCCC2C)ccc1NCC(=O)N1CCOCC1 (stereo not drawn) | 26.9% |
| CC(C)C(Sc1nnnn1-c1ccccc1)C(=O)NCc1cccnc1 (stereo not drawn) | -2.05% |
| CCCNC(=O)CNc1ccc(C(=O)N2CCCCC2C)cc1C (stereo not drawn) | -2.88% |
| Cc1cccc(-c2noc(CN3CCC(N4CCNC4=O)CC3)n2)c1 | -0.858% |
| CC(=O)Nc1nc(CN2CCCC2Cn2cncn2)cs1 (stereo not drawn) | 35.6% |
| CCn1cnnc1C1CCN(C(=O)c2ccc(C(=O)OC)s2)CC1 | -10.6% |
| c1ccc(OCCCN2CCN(c3ccc4nncn4n3)CC2)cc1 | 2.05% |
| CN(Cc1cc(-c2ccccc2)no1)C1CCCN(c2cccnn2)C1 (stereo not drawn) | -13.5% |
| CCN1CCN(C2CCN(Cc3nc(-c4ccoc4)no3)CC2)C1=O | 1.49% |
| COCC(=O)N1CCN(Cc2coc(-c3cccc(F)c3)n2)CC1 | -6.62% |
| COCCN1CCC(NCc2cccnc2)C1 (stereo not drawn) | 2.68% |
| CC(NC(=O)CNCCn1cccn1)c1ccc2c(c1)OCCO2 (stereo not drawn) | -7.87% |
| c1ncn(CC2CCCCN2Cc2csc(C3CCCC3)n2)n1 (stereo not drawn) | 33.9% |
| CCc1nccn1C1CCCN(C(=O)c2ccc(C(=O)NC)nc2)C1 (stereo not drawn) | -5.35% |
| CCc1nc(CN2CCCN(c3nccs3)CC2)no1 | 6.55% |
| CC(=O)N1CCC[C@H]1C(=O)NCCOc1cccc(Cl)c1 | 0.931% |

| Compound | cytotoxicity at 70.5 h |
| --- | --- |
| CC(C)(C)c1noc(CN2CCCN(Cc3cccs3)CC2)n1 | -3.44% |
| Cc1cncc(C(=O)N2CCCCC2c2nc(C)cs2)c1 (stereo not drawn) | 17.3% |
| CNC(=O)C1CCN(C(=O)c2cccn2Cc2cccs2)CC1 | -8.46% |
| CCN(C)S(=O)(=O)N(CC)Cc1ccc2c(c1)OCO2 | -17.8% |
| Cc1nnc(NC(=O)NCc2cccnc2N(C)C)s1 | -8.59% |
| Cc1ccccc1CS(=O)(=O)CC(=O)NC1CCCCNC1=O (stereo not drawn) | -11.3% |
| CC(C)Cc1noc(CN2CCN(c3nccs3)CC2)n1 | -3.87% |
| CC(Cn1cccn1)NC(=O)Nc1nnc(C2CC2)s1 (stereo not drawn) | -11% |
| O=C(Nc1cc(C(F)(F)F)c[nH]c1=O)N1CCCSCC1 | -8.3% |
| c1csc(N2CCCN(Cc3nc(C4CC4)no3)CC2)n1 | -15.8% |
| CC(=O)N1CCCC1C(=O)NCCOc1cc(C)cc(C)c1 (stereo not drawn) | -30.3% |
| O=C(C1CC1)N1CCN(Cc2coc(-c3ccc(Cl)cc3)n2)CC1 | 12.1% |
| COc1ccccc1S(=O)(=O)Nc1ccc2c(C(=O)O)c[nH]c2c1 | -6.86% |
| COC(=O)C(NC(=O)C(C)C)c1cc(F)ccc1F (stereo not drawn) | -20.7% |
| CCNc1cc2c(nn1)CCN(C(=O)c1cccc3c1OCCO3)C2 | -9.67% |
| Cn1cccc1C(=O)Nc1cc(F)ccc1OCC1CCCO1 (stereo not drawn) | -17.4% |
| O=C(Nc1cc(F)ccc1OCC1CCCO1)N1CCCC1 (stereo not drawn) | -17.1% |
| Cc1nc(C2CCCN(C(=O)CCCn3ccnc3C)C2)no1 (stereo not drawn) | -11.8% |
| Cc1nc(C2CCCN(C(=O)c3ccc(Cn4cccn4)o3)C2)no1 (stereo not drawn) | -12.8% |
| Clc1snnc1CN1CCOC(CNc2cccnn2)C1 (stereo not drawn) | -21.7% |
| CN(C)c1ccc(CNc2cncc(-n3cccn3)n2)cc1 | -4.47% |
| Cc1nc(C)n(CC2CCCN2CC(=O)Nc2ccnn2C(C)C)n1 (stereo not drawn) | 17% |

— ChEMBL document CHEMBL3507680, “University of Dundee, Gates Library screen for HepG2 cell viability”
